Values joined by “and” are separate entries in the source; they are usually repeats but may differ in a detail not shown here. Equal values may be shown once.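 Each compound was tested at five concentrations against cells in 96-well plates for 48 hours. Abbreviation: GI50, concentration required for 50% inhibition of growth. TGI: total growth inhibition.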
Key:
Assay in all cases: NCI-60 cell line screen, 48 h
MDA-N = test system: MDA-N
DMS 114 small cell lung = test system: DMS 114 small cell lung
DMS 273 small cell lung = test system: DMS 273 small cell lung
HOP-18 NSCLC = test system: HOP-18 NSCLC
KM20L2 colon = test system: KM20L2 colon
M19-MEL melanoma = test system: M19-MEL melanoma
RXF-631 renal = test system: RXF-631 renal
SNB-78 CNS = test system: SNB-78 CNS
XF 498 CNS = test system: XF 498 CNS

Structure (SMILES)	TGI (MDA-N)	TGI (DMS 114 small cell lung)	TGI (DMS 273 small cell lung)	TGI (HOP-18 NSCLC)	TGI (KM20L2 colon)	TGI (M19-MEL melanoma)	TGI (RXF-631 renal) [µM]	TGI (SNB-78 CNS)	TGI (XF 498 CNS)	other results
O=S(=O)(O)c1ccc(Cl)cc1.[Cd]	68.9 µM	–	–	–	–	–	–	–	–	GI50 (MDA-N): 22.1 µM
Cc1cc2cc(Cl)ccc2nc1C(=O)c1ccccc1	–	> 100 µM	> 100 µM	> 100 µM	> 100 µM	> 100 µM	> 100	> 100 µM	> 100 µM	–
C/C(=N\Nc1ccc2ccccc2n1)c1ccccc1O	> 100 µM	–	–	–	–	–	–	–	–	–
O=C1CSC(=S)N1c1ccc(F)cc1F	> 100 µM	–	–	–	–	–	–	–	–	–
CC1(C)CC(=O)C2=C(C1)NC(SSC1=C(C#N)C(c3ccc(Br)cc3)C3=C(CC(C)(C)CC3=O)N1)=C(C#N)C2c1ccc(Br)cc1 (centres undefined)	> 100 µM and 150 µg/mL	–	–	–	–	–	–	–	–	GI50 (MDA-N): 45.9 µg/mL
COc1ccc2nc3cc(Cl)ccc3c(NCCC(=O)OCC(O)C(O)C(O[C@H](C)C(=O)NC(C)C(=O)NC(CCC(N)=O)C(=O)OCc3ccccc3)C(C=O)NC(C)=O)c2c1 (some centres undefined)	–	–	27.6 µM	–	32.7 µM	34.4 µM	36.9	80.8 µM	33.5 µM	–
O=C(Nc1ccc(Cl)c(Cl)c1)C(=O)Nn1c(=S)[nH]c2ccccc2c1=O	–	> 100 µM	> 100 µM	> 100 µM	> 100 µM	> 100 µM	–	> 100 µM	> 100 µM	–
O=C(CCc1nnc2s/c(=C\c3ccc4c(c3)OCO4)c(=O)n12)Nc1cc(Cl)ccc1Cl	–	> 100 µM	> 100 µM	> 100 µM	> 100 µM	> 100 µM	> 100	> 100 µM	> 100 µM	–
COc1cc(C2c3cc4c(cc3[C@H](NC(=O)c3cccs3)C3COC(=O)[C@H]23)OCO4)cc(OC)c1OC (some centres undefined)	–	–	> 100 µM	> 100 µM	0.0396 µM	–	–	> 100 µM	–	–
COc1ccc2c(c1)CCc1cnn(C3OC(COC(C)=O)C(OC(C)=O)C(OC(C)=O)C3OC(C)=O)c1-2 (centres undefined)	–	> 100 µM	> 100 µM	–	51.8 µM	> 100 µM	> 100	> 100 µM	52.1 µM	–
Cc1cc(C)nc(NS(=O)(=O)c2ccc(NC(=O)c3cccc4c(Nc5ccc(S(=O)(=O)Nc6nc(C)cc(C)n6)cc5)c5ccccc5nc34)cc2)n1	–	–	38.9 µM	29.7 µM	42.9 µM	> 100 µM	42.6	> 100 µM	79.7 µM	–
COc1ccc2nc3cccc([N+](=O)[O-])c3c(NCCN(CCO)CCO)c2c1	0.0769 µM	–	–	–	–	–	–	–	–	GI50 (MDA-N): 0.023 µM
COc1ccc(NC(=O)CC/C(CC(=O)c2ccccc2Cl)=N\Nc2nnc(C)n2N)cc1	–	> 100 µM	> 100 µM	> 100 µM	> 100 µM	> 100 µM	> 100	> 100 µM	–	–
CN(C)c1ccc(/C=C/C(=O)c2ccccc2)cc1Br	–	36.9 µM	–	–	57.6 µM	37.1 µM	–	–	31.2 µM	–
Cc1cc(Cl)ccc1NC(=O)/C(Cl)=C(/Cl)C(=O)O	60.9 µM	–	–	–	–	–	–	–	–	–
NC(=O)c1nnn(Cc2cc(Cl)c(C(=O)c3ccc(Cl)cc3)c(Cl)c2)c1N	> 46.9 µM	> 9.09 µM and 23.3 µM	> 9.09 µM and 21.2 µM	> 9.09 µM and 36.4 µM	> 9.09 µM and 17.4 µM	> 9.09 µM and 27.4 µM	53.9	> 9.09 µM and 52.2 µM	> 9.09 µM and 22.9 µM	GI50 (DMS 114 small cell lung): 3.36 µM; GI50 (DMS 273 small cell lung): 5.77 µM; GI50 (HOP-18 NSCLC): 21.7 µM; GI50 (KM20L2 colon): 2.79 µM; GI50 (M19-MEL melanoma): 14.1 µM; GI50 (SNB-78 CNS): 19 µM; GI50 (XF 498 CNS): 10.8 µM
CSC(=S)N/N=C/c1ccccc1	> 100 µM	–	–	–	–	–	–	–	–	–
Cn1c(=O)nc2n(-c3ccc(F)cc3)c3ccccc3nc-2c1=O	–	28.6 µM	36 µM	> 100 µM	48.7 µM	10.6 µM	–	42.2 µM	34.3 µM	–
O=C1OC(c2ccccc2)C2CC3CC4(CCC3CN12)OCCO4 (centres undefined)	–	–	> 100 µM	–	> 100 µM	–	> 100	> 100 µM	> 100 µM	–

Structure (SMILES)	TGI (MDA-N)	TGI (DMS 114 small cell lung)	TGI (DMS 273 small cell lung)	TGI (HOP-18 NSCLC)	TGI (KM20L2 colon)	TGI (M19-MEL melanoma)	TGI (RXF-631 renal) [µM]	TGI (SNB-78 CNS)	TGI (XF 498 CNS)	other results
COC(=O)CSc1ccccc1	–	–	> 100 µM	> 100 µM	> 100 µM	> 100 µM	> 100	> 100 µM	> 100 µM	–
COc1ccc(C(=O)/C(=N/Nc2ccccc2)c2ccc(OC)cc2)cc1	–	> 100 µM	> 100 µM	> 100 µM	51.5 µM	> 100 µM	> 100	> 100 µM	> 100 µM	–
[N-]=[N+]=Nc1ccccc1-[n+]1noc([O-])c1Br	–	> 100 µM	–	> 100 µM	> 100 µM	> 100 µM	–	–	–	–
N#Cc1ccc(/C=N\N2C(=O)c3ccccc3C2=O)cc1	–	> 100 µM	> 100 µM	> 100 µM	> 100 µM	> 100 µM	–	> 100 µM	> 100 µM	–
COC(=O)CCC(=O)CC(=O)C(=O)Nc1ccc(F)cc1	–	> 100 µM	> 100 µM	> 100 µM	> 100 µM	> 100 µM	–	> 100 µM	–	–
O=C(O)CN(CC(=O)O)Cc1cc2c(cc1O)Oc1cc(O)c(CN(CC(=O)O)CC(=O)O)cc1C21OC(=O)c2ccccc21	> 100 µM	–	–	–	–	–	–	–	–	–
O=c1oc2c3ccc4ccccc4c3n(CCN3CCOCC3)c2c2ccccc12	–	> 100 µM	–	> 100 µM	> 100 µM	> 100 µM	–	–	–	–
COc1ccc(C(=O)C(c2ccc(OC)cc2)C2C(=O)Oc3ccccc32)cc1 (centres undefined)	–	> 100 µM	> 100 µM	> 100 µM	> 100 µM	> 100 µM	–	> 100 µM	> 100 µM	GI50 (DMS 114 small cell lung): > 100 µM; GI50 (DMS 273 small cell lung): > 100 µM; GI50 (KM20L2 colon): > 100 µM; GI50 (M19-MEL melanoma): > 100 µM; GI50 (XF 498 CNS): > 100 µM
CC1(C)CC(=O)C(C(c2cccc(O)c2O)C2C(=O)CC(C)(C)CC2=O)C(=O)C1	> 100 µM	–	–	–	–	–	–	–	–	–
Nc1nc(=O)n(C2CC(O)C(O)C(CO)O2)cc1F (centres undefined)	–	> 100 µM	–	> 100 µM	> 100 µM	> 100 µM	> 100	> 100 µM	> 100 µM	–
COc1ccc(CN2C(=O)C(Cc3cc(OC)c(OC)c(C)c3OC)N(C(=O)OC(C)C)C(=O)/C2=C/c2cc(OC)c(OC)c(C)c2OC)cc1 (centres undefined)	–	> 100 µM	> 100 µM	> 100 µM	> 100 µM	> 100 µM	> 100	–	–	–
O=C(O)CNC(=O)c1ccccc1O	> 100 µM	–	–	–	–	–	–	–	–	–
COc1ccc2c(CC(=O)O)cc(=O)oc2c1	> 100 µM	–	–	–	–	–	–	–	–	–
CCOc1cc(C=O)c2c(ccc3ccc(OC)c(OC)c32)c1OC	> 100 µM	–	–	–	–	–	–	–	–	–
Cc1cc2c(cc1C)N1Cc3c(ccc(C)c3C)N(C2)C1 (tested in a mixture with another compound)	–	> 100 µM	> 100 µM	> 100 µM	> 100 µM	> 100 µM	–	> 100 µM	> 100 µM	–
O=c1cc2n(c(=O)[nH]1)C1OC(C(O)C1O)[C@H]2CCO (some centres undefined)	–	> 100 µM	> 100 µM	–	> 100 µM	> 100 µM	–	> 100 µM	–	–
CC(=O)Oc1ccc2ccc(=O)oc2c1OC(C)=O	> 100 µM	–	–	–	–	–	–	–	–	–
C[N+](C)(C)CCC(=O)N1C/C(=C\c2ccccc2)C(=O)/C(=C/c2ccccc2)C1	3.36 µM	> 22.3 µM	5.33 µM	26.7 µM	22 µM	15.5 µM	–	22.9 µM	27.6 µM	–
O=C(CC1(O)C(=O)Nc2c(Cl)cccc21)c1ccccc1 (centres undefined)	–	> 100 µM	> 100 µM	> 100 µM	> 100 µM	–	–	> 100 µM	> 100 µM	–
